Experimental findings from paper PMC9306661 (British Journal of Pharmacology, 2021) are described below.

As usually defined, the EC50 is the concentration needed to bring the measured effect to its halfway point.

One assay addresses T1, Cel-AVR-14B/GLC-2 (Caenorhabditis elegans, UniProt Q17328+Q17369).
T1 sequence (Q17369 22-430): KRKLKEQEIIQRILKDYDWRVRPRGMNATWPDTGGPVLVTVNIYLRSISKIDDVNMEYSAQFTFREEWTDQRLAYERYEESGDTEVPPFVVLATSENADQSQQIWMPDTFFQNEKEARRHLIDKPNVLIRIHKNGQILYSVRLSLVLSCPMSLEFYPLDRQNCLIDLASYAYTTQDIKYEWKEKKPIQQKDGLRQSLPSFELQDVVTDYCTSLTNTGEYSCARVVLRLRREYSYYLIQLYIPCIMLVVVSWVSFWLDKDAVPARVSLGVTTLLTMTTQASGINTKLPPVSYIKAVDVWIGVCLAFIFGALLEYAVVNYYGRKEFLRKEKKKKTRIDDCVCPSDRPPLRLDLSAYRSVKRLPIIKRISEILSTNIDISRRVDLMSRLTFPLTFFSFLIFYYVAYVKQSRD
T1 sequence (Q17328 23-434): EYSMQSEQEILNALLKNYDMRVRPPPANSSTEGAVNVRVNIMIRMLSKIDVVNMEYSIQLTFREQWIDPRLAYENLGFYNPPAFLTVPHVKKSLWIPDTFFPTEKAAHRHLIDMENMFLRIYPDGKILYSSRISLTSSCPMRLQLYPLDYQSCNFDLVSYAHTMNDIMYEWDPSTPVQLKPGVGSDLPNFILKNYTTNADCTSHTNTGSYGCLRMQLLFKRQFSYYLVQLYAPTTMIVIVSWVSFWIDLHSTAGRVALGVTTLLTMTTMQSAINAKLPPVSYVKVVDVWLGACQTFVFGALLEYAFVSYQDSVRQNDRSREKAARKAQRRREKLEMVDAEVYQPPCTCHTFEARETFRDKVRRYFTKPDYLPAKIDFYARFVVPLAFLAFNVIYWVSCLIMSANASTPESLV
As to the kind of experiment: two-electrode voltage clamp, Xenopus oocytes. It counts as cell-based.

The target in a further assay is T2, Pun-AVR-14B/GLC-2 (Parascaris univalens, UniProt A0A894K7G1+A0A894KE58).
T2 sequence (A0A894K7G1 19-428): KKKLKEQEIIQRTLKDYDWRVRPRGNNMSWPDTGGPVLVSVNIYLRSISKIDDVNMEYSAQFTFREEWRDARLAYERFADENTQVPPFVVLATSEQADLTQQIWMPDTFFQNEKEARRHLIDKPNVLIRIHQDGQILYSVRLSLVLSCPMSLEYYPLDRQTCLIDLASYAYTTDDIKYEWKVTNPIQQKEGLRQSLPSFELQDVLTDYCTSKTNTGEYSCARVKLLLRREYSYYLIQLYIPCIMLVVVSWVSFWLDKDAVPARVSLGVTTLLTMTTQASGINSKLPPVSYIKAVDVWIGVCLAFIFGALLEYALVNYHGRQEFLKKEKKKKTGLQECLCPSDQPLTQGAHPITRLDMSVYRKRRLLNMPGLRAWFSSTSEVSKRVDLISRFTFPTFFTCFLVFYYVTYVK
T2 sequence (A0A894KE58 21-448): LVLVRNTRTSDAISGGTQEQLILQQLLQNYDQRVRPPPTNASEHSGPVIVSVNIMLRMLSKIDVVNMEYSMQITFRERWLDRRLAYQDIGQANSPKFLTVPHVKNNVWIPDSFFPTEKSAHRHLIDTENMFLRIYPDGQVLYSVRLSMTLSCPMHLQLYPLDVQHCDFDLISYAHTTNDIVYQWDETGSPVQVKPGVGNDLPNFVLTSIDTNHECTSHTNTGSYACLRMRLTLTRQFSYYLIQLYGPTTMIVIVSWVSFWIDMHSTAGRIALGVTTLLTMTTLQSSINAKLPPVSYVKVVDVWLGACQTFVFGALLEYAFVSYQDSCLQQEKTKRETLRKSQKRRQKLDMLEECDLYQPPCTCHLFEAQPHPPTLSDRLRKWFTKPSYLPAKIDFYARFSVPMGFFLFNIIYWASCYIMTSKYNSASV
Description: two-electrode voltage clamp, Xenopus oocytes. It counts as cell-based. For orientation: Two-electrode voltage clamp is typically applied to oocytes expressing channels or transporters.

Regarding `N[C@@H](CCC(=O)O)C(=O)O` [glutamate], the EC50 at Cel-AVR-14B/GLC-2 came out at 19.4 µM; on Pun-AVR-14B/GLC-2, 10.9 µM.
